Results published in patent US11939299B1, “4-((2-(2-(2-(4-methoxyphenyl)-4,5-diphenyl-1H-imidazol-1-yl)acetyl)hydrazono)methyl)benzoic acid as an anti-cancer compound” (KING FAISAL UNIVERSITY, priority 2023, dated 2024).

Assays:
Assay type in all cases: cell-based
[1] = test system: HCT-15; test: Percentage growth inhibition of in vitro subpanel tumor cell lines, colon cancer; settings: Homo sapiens; HCT-15 (Colon Cancer), 0.01 mM; read-out: Percentage growth inhibition (GI %)
Description: (§1) The anticancer activity of 4-((2-(2-(2-(4-Methoxyphenyl)-4,5-diphenyl-1H-imidazol-1-yl)acetyl)hydrazono)methyl)benzoic acid was assessed against leukemia, non-small cell lung cancer, colon cancer, central nervous system (CNS) cancer, melanoma, ovarian cancer, renal cancer, prostate cancer, and breast cancer.
(§2) Percentage growth inhibition (GI %) of in vitro subpanel tumor cell lines at 0.01 mM concentration for compound 4-((2-(2-(2-(4-Methoxyphenyl)-4,5-diphenyl-1H-imidazol-1-yl)acetyl)hydrazono)methyl)benzoic acid (Labeled as AE21 in the table) can be seen in Table 1 below.

[2] = test system: PC-3; test: Percentage growth inhibition of in vitro subpanel tumor cell lines, prostate cancer; settings: Homo sapiens; PC-3 (Prostate Cancer), 0.01 mM; read-out: Percentage growth inhibition (GI %)
Description: as §1, §2

[3] = test system: SK-MEL-5; test: Percentage growth inhibition of in vitro subpanel tumor cell lines, melanoma; settings: Homo sapiens; SK-MEL-5 (Melanoma), 0.01 mM; read-out: Percentage growth inhibition (GI %)
Description: as §1, §2

[4] = test system: MDA-MB-435; test: as above; settings: Homo sapiens; MDA-MB-435 (Melanoma), 0.01 mM; read-out: Percentage growth inhibition (GI %)
Description: as §1, §2

[5] = test system: LOX IMVI; test: as above; settings: Homo sapiens, 0.01 mM, read-out: Percentage growth inhibition (GI %)
Description: as §1, §2

[6] = test system: UO-31; test: Percentage growth inhibition of in vitro subpanel tumor cell lines, renal cancer; settings: Homo sapiens; UO-31 (Renal Cancer), 0.01 mM; read-out: Percentage growth inhibition (GI %)
Description: as §1, §2

[7] = test system: CAKI-1; test: as above; settings: Homo sapiens; CAKI-1 (Renal Cancer), 0.01 mM; read-out: Percentage growth inhibition (GI %)
Description: as §1, §2

[8] = test system: A498; test: as above; settings: Homo sapiens, 0.01 mM, read-out: Percentage growth inhibition (GI %)
Description: as §1, §2

[9] = test system: NCI-H322M; test: Percentage growth inhibition of in vitro subpanel tumor cell lines, non-small cell lung cancer; settings: Homo sapiens, 0.01 mM, read-out: Percentage growth inhibition (GI %)
Description: as §1, §2

[10] = test system: NCI-H226; test: as above; settings: Homo sapiens, 0.01 mM, read-out: Percentage growth inhibition (GI %)
Description: as §1, §2

[11] = test system: NCI-H522; test: as above; settings: Homo sapiens, 0.01 mM, read-out: Percentage growth inhibition (GI %)
Description: as §1, §2

[12] = test system: NCI-H23; test: as above; settings: Homo sapiens, 0.01 mM, read-out: Percentage growth inhibition (GI %)
Description: as §1, §2

[13] = test system: EKVX; test: as above; settings: Homo sapiens, 0.01 mM, read-out: Percentage growth inhibition (GI %)
Description: as §1, §2

[14] = test system: tumor cell lines; test: Anticancer activity against tumor cell lines (panel, overall statement); settings: some tumor cell lines, 0.01 mM concentration
Description: as §1, §2

[15] = test system: MOLT-4; test: Percentage growth inhibition of in vitro subpanel tumor cell lines, leukemia; settings: Homo sapiens; MOLT-4 (Leukemia), 0.01 mM; read-out: Percentage growth inhibition (GI %)
Description: as §1, §2

[16] = test system: CCRF-CEM; test: as above; settings: Homo sapiens, 0.01 mM, read-out: Percentage growth inhibition (GI %)
Description: as §1, §2

[17] = test system: RPMI-8226; test: as above; settings: Homo sapiens; RPMI-8226 (Leukemia), 0.01 mM; read-out: Percentage growth inhibition (GI %)
Description: as §1, §2

[18] = test system: MCF7; test: Percentage growth inhibition of in vitro subpanel tumor cell lines, breast cancer; settings: Homo sapiens, 0.01 mM, read-out: Percentage growth inhibition (GI %)
Description: as §1, §2

[19] = test system: HS 578T; test: as above; settings: Homo sapiens; HS 578T (Breast Cancer), 0.01 mM; read-out: Percentage growth inhibition (GI %)
Description: as §1, §2

[20] = test system: SF-295; test: Percentage growth inhibition of in vitro subpanel tumor cell lines, CNS cancer; settings: Homo sapiens; SF-295 (CNS Cancer), 0.01 mM; read-out: Percentage growth inhibition (GI %)
Description: as §1, §2

[21] = test system: SNB-75; test: as above; settings: Homo sapiens; SNB-75 (CNS Cancer), 0.01 mM; read-out: Percentage growth inhibition (GI %)
Description: as §1, §2

[22] = test system: OVCAR-4; test: Percentage growth inhibition of in vitro subpanel tumor cell lines, ovarian cancer; settings: Homo sapiens; OVCAR-4 (Ovarian Cancer), 0.01 mM; read-out: Percentage growth inhibition (GI %)
Description: as §1, §2

## COc1ccc(-c2nc(-c3ccccc3)c(-c3ccccc3)n2CC(=O)N/N=C/c2ccc(C(=O)O)cc2)cc1 [AE21, 4-((2-(2-(2-(4-Methoxyphenyl)-4,5-diphenyl-1H-imidazol-1-yl)acetyl)hydrazono)methyl)benzoic acid]
[1]
  inhibition at 10 µM: 3.82%
[2]
  inhibition at 10 µM: 2.68%
[3]
  inhibition at 10 µM: 1.29%
[4]
  inhibition at 10 µM: 9.17%
[5]
  inhibition at 10 µM: 5.6%
[6]
  inhibition at 10 µM: 0.61%
[7]
  inhibition at 10 µM: 6.23%
[8]
  inhibition at 10 µM: 13.5%
[9]
  inhibition at 10 µM: 0.85%
[10]
  inhibition at 10 µM: 6.62%
[11]
  inhibition at 10 µM: 12.4%
[12]
  inhibition at 10 µM: 4.19%
[13]
  inhibition at 10 µM: 10.3%
[14]
  anticancer activity: moderate efficiency
[15]
  inhibition at 10 µM: 4.6%
[16]
  inhibition at 10 µM: 2.61%
[17]
  inhibition at 10 µM: 0.34%
[18]
  inhibition at 10 µM: 13.4%
[19]
  inhibition at 10 µM: 18.6%
[20]
  inhibition at 10 µM: 5.54%
[21]
  inhibition at 10 µM: 18.9%
[22]
  inhibition at 10 µM: 13.7%
